According to patent US20040235785A1, “Potentiator of antitumoral agents in the treatment of cancer” (priority 2001, published 2004):

Columns and labels:
[1] = test system: DLD-1 human colon adenocarcinoma cell line; test: Maximal tolerated dose in vitro (resazurin reduction test), DLD-1; assay type: cell-based; settings: DLD-1, 48 h
Description: (§1) The human cell lines breast cancer adenocarcinoma MCF-7, prostatic adenocarcinoma PC-3, lung carcinoma A-549 and colon adenocarcinoma DLD-1 together with the mouse cell line L-929 (fibrobast) were obtained from the European Collection of Cell Cultures (ECACC, Salisbury, United Kingdom). Normal human fibroblasts were purchased from Biopredic International (Rennes, France). The M4BEU human melanoma cell line was generously supplied by Dr. J F Doré (Institut National de la Santé et de la Recherche Médicale-INSERM, Unit 218, Lyon, France). All the cell lines were grown in minimum essential medium with Earle's salts (Gibco-BRL, Paisley, Scotland) supplemented with 10% fetal calf serum (Sigma-Aldrich), 1×solution of vitamins (Gibco-BRL), 1 mM sodium pyruvate (Gibco-BRL), 1×non-essential amino acids (Gibco-BRL) and 2 mg of gentamicin base (Gibco-BRL). Cells were cultured in a humidified atmosphere at 37° C. in 5% CO2.

[2] = test system: L-929 mouse subcutaneous connective tissue cell line; test: Maximal tolerated dose in vitro (resazurin reduction test), L-929; assay type: cell-based; settings: L-929, 48 h
Description: as §1

[3] = studies performed by the National Cancer Institute; cited from earlier work
[4] = test system: A-549 human lung carcinoma cell line; test: Maximal tolerated dose in vitro (resazurin reduction test), A-549; assay type: cell-based; settings: A-549, 48 h
Description: as §1

[5] = test system: PC-3 human prostatic adenocarcinoma cell line; test: Maximal tolerated dose in vitro (resazurin reduction test), PC-3; assay type: cell-based; settings: PC-3, 48 h
Description: as §1

MCF-7 cells = test: Synergistic effect in combination with paclitaxel, MCF-7; assay type: cell-based, human; settings: MCF-7, β-caryophyllene combined with paclitaxel
Protocol: The resazurin reduction test (RRT) was carried out according to the protocol as described by O'Brien et al. Briefly, plates were rinsed by 200 μl PBS (37° C., Gibco) at 37° C. using an automatic microplate washer (Cell Wash™, Labsystems, Helsinki, Finland) and emptied by overturning on absorbent toweling. Then, 150 μl of a 25μg/ml solution of resazurin in MEM without Phenol red was added in each well using an automatic microvolume dispenser (Multidrop 384™ Labsystems). The plates were incubated 1 h at 37° C. in a humidified atmosphere with 5% of CO2 for fluorescence development by living cells. Fluorescence was then measured on the automated 96-well plate reader Fluoroskan Ascent FL™ (Labsystems) using an excitation wavelength of 530 nm and an emission one of 590 nm. The fluorescence is proportional to the number of living cells in the well.
Briefly, the cells were plated at a density of 5×10^3 cells per well in 96-well microplates (Nunclon™, Nunc) in 100 μl of culture medium and were allowed to adhere for 16 h before treatment. […] The proliferation of tumour cells was assessed using resazurin reduction test as described above. The synergistic effect of β-caryophyllene was determined by the comparison between the percentage of cells growth inhibition induced by the paclitaxel used alone and the one induced by the combination of paclitaxel and β-caryophyllene.

[6] = test system: M4BEU human melanoma cell line; test: Maximal tolerated dose in vitro (resazurin reduction test), M4BEU; assay type: cell-based; settings: 48 h
Description: as §1

[7] = test system: MCF-7 human breast adenocarcinoma cell line; test: Maximal tolerated dose in vitro (resazurin reduction test), MCF-7; assay type: cell-based; settings: MCF-7, 48 h
Description: as §1

[8] = test system: normal and cancerous cell lines; test: In vitro toxicity / MTD, stated overall for the cell lines tested; assay type: cell-based
Protocol: The screening of terpene potentiators in accordance with the present invention is carried out by the evaluation of several parameters including: i) the cytotoxicity (maximal tolerated dose); and iii) the effect on the intracellular glutathione content; and iv) the synergism in combination with antitumor agents. Briefly, the cytotoxicity or the cell growth inhibition induced by the terpenes is evaluated on various cell lines in order to determine the maximal tolerated dose (MTD) or non-toxic dose. […] The cell growth is measured by the fluorescence induced by the metabolic transformation of resazurin™ in resorufin™, which is proportional to living cells (see materials and methods). […] Moreover, β-caryophyllene is not toxic in mice at >500 mg/kg. It is shown herein that β-caryophyllene is having a synergistic action on the treatment of cancer when used in combination with antitumoral agents such as paclitaxel. To assess the synergistic effect of terpenes such as β-caryophyllene, the cancer cells are treated with growing concentrations of antitumoral agents (paclitaxel) with or without terpene (β-caryophyllene).
The in vitro toxicity of β-caryophyllene has been evaluated from 5 cell lines: human adenocarcinoma, MCF-7; human prostatic adenocarcinoma, PC-3; human lung carcinoma, A-549 and human colon adenocarcinoma, DLD-1 and from human and mouse fibroblasts.
Cell survival has been evaluated after receiving an increasing dose of β-caryophyllene between 6.25 and 800 µM. It is shown in table I that β-caryophyllene is not toxic in vitro in a dose less than […].

normal human fibroblasts = test: Maximal tolerated dose in vitro (resazurin reduction test), human fibroblast; assay type: cell-based; settings: 48 h
Description: as §1

Q: What does the source list for `C=C1CC/C=C(\C)CC[C@@H]2[C@@H]1CC2(C)C` [β-caryophyllene]?
A: MTD (maximal tolerated dose or maximal no toxic dose) [1]: >800 µM; MTD (maximal tolerated dose or maximal no toxic dose) [2]: >800 µM; mutagenicity [3]: not mutagenic; MTD (maximal tolerated dose or maximal no toxic dose) [4]: >800 µM; MTD (maximal tolerated dose or maximal no toxic dose) [5]: >800 µM; increase of cell growth inhibition induced by paclitaxel (MCF-7 cells): about 40%; MTD (maximal tolerated dose or maximal no toxic dose) [6]: >800 µM; MTD (maximal tolerated dose or maximal no toxic dose) [7]: >800 µM; cytotoxicity against normal and cancerous cell lines tested in vitro [8]: does not induce cytotoxicity; in vitro toxicity (cell survival) ([8]; dose less than 800, doses tested between 6.25 and 800): not toxic; MTD (higher concentration that does not induce cell growth inhibition) ([8]; various cell lines, stated overall): greater than 800 μM; MTD (maximal tolerated dose or maximal no toxic dose) (normal human fibroblasts): >800 µM
